Results published in patent publication US20170158702A1, “MULTIVALENT RAS BINDING COMPOUNDS” (KYRAS THERAPEUTICS, INC., priority 2015, published 2017).
Structures can show the parent of a compound that is named as a salt.

Columns and labels:
Format in all cases: cell-based
[1] = system: HT-29; assay: Viability assay with HT-29; conditions: HT-29, viability assay per Example 57
Procedure: (§1) NCI-H460 (Epithelial lung tissue; carcinoma; large cell lung cancer) were cultured in RPMI Medium 1640 (Invitrogen-22400105) supplemented with 10% fetal bovine serum (FBS; Invitrogen-10099141). All the cell lines were maintained in a humidified incubator at 37° C. with 5% CO2. Cell culture media and supplements were purchased from Invitrogen, and tissue culture flasks were purchased from Corning, 96-well plates were purchased from Greiner. CellTiter-Glo Luminescent Cell Viability Assay kits were purchased from Promega (Promega-G7573), cells counter Vi-Cell was purchased from Beckman, D300e digital dispenser was purchased from Tecan, detection instrument Envision was purchased from PerkinElmer.
(§2) Paclitaxel was purchased from SELLECK, test compounds, such as any one of the compounds disclosed herein, attained solubility in DMSO and when diluted into culture media. DMSO, solutions containing the test compounds, and culture media were warmed to 37° C. or room temperature for the solution preparation and dilutions.
(§3) NCI-H460 Cell line were seeded in 96-well plates (1200/well) and allowed to adhere to overnight (100 uL/well), for drug treatments with 2 fold dilution, 9 dose points, triplicates or vehicle control, compound stock solutions were prepared in DMSO and use D300e digital dispenser to add compounds to the wells to give the indicated final drug concentrations. Final DMSO concentration was 0.5%. Cellular ATP concentrations were assessed by using the CellTiter-Glo Cell Viability Assay as per the manufacturer's instructions 72 h after compounds addition. Additional cells lines were assayed with any one of the compounds disclosed herein according to the procedures described for the viability assay with NCI-H460.
A viability assay with HT-29 (Colorectal adenocarcinoma) was performed with compounds listed in Table 18 according to the procedures described in Example 57.

[2] = system: MIA PaCa-2; assay: Viability assay with MIA PaCa-2; conditions: MIA PaCa-2, viability assay per Example 57
Procedure: as §1, §2, §3
A viability assay with MIA PaCa-2 (Epithelial pancreas tissue; carcinoma) was performed with compounds listed in Table 15, according to the procedures described in Example 57.

[3] = system: NCI-H460; assay: Viability assay with NCI-H460 (CellTiter-Glo cytotoxicity assay, 72 h); conditions: NCI-H460 cell line, 72 h after compounds addition
Procedure: as §1, §2, §3

NCCCn1cc(-c2ccc(OC(F)(F)F)cc2CN)c2cc(CN3CCC(CC(F)(F)F)CC3)ccc21 [C252; HCl]
EC50 [1]: ≤ 5 µM | EC50 [2]: ≤ 5 µM | EC50 [3]: ≤ 5 µM

NCCCn1cc(-c2ccc(CO)cc2)c2cc(CN3CCN(Cc4ccccc4Cl)CC3)ccc21 [C142; Formic Acid]
EC50 [1]: 5 to 10 µM | EC50 [2]: 5 to 10 µM | EC50 [3]: ≤ 5 µM

FC(F)(F)Oc1ccc(-c2cn(CCNc3ccccn3)c3ccc(CN4CCN(Cc5ccccc5Cl)CC4)cc23)cc1 [C199; HCl]
EC50 [1]: 5 to 10 µM | EC50 [2]: 5 to 10 µM | EC50 [3]: 5 to 10 µM

NCCCn1cc(-c2ccc(OC(F)(F)F)cc2CN)c2cc(CN3CCCC(N)C3)ccc21 (stereo not drawn) [C259; HCl]
EC50 [1]: 5 to 10 µM | EC50 [2]: 5 to 10 µM | EC50 [3]: 5 to 10 µM

COc1ccccc1CN1CCN(Cc2ccc3c(c2)c2ccccc2n3CCCN)CC1 [C268; HCl]
EC50 [1]: ≤ 5 µM | EC50 [2]: 5 to 10 µM | EC50 [3]: 5 to 10 µM

NCCCn1cc(-c2ccc(OC(F)(F)F)cc2CN)c2cc(CN3CCS(=O)(=O)CC3)ccc21 [C288; HCl]
EC50 [1]: ≤ 5 µM | EC50 [2]: ≤ 5 µM | EC50 [3]: ≤ 5 µM

NCCCn1cc(-c2ccccc2C(N)=O)c2cc(CN3CCN(Cc4ccccc4Cl)CC3)ccc21 [C185; HCl]
EC50 [1]: 5 to 10 µM | EC50 [2]: 5 to 10 µM | EC50 [3]: 5 to 10 µM

COc1ccc(-c2cn(CCCCN)c3ccc(CN4CC5CCC(C4)N5Cc4ccccc4Cl)cc23)cc1 [C133; HCl]
EC50 [1]: ≤ 5 µM | EC50 [2]: ≤ 5 µM | EC50 [3]: ≤ 5 µM

NCc1ccc(-n2cc(-c3ccc(OC(F)(F)F)cc3)c3cc(CN4CCN(Cc5ccccc5Cl)CC4)ccc32)cn1 [C218; Formic Acid]
EC50 [1]: ≤ 5 µM | EC50 [2]: ≤ 5 µM | EC50 [3]: ≤ 5 µM

CC(C)(N)CCCn1cc(-c2ccc(OC(F)(F)F)cc2CN)c2cc(CN3CCN(Cc4ccccc4Cl)CC3)ccc21 [C251; HCl]
EC50 [1]: ≤ 5 µM | EC50 [2]: ≤ 5 µM | EC50 [3]: ≤ 5 µM

NCCCn1cc(-c2ccc(OC(F)(F)F)cc2)c2c(CN3CCN(Cc4ccc(OC(F)(F)F)cc4)CC3)cccc21 [C186; HCl]
EC50 [1]: 5 to 10 µM | EC50 [2]: 5 to 10 µM | EC50 [3]: 5 to 10 µM

COc1cccc(CC2CCN(Cc3ccc4c(c3)c(-c3ccc(OC(F)(F)F)cc3CN)cn4CCCN)CC2)c1 [C262; HCl]
EC50 [1]: ≤ 5 µM | EC50 [2]: ≤ 5 µM | EC50 [3]: ≤ 5 µM

CCC1CCN(S(=O)(=O)c2ccc3c(c2)c(-c2ccc(OC)cc2CN)cn3CCCN)CC1 [C270; HCl]
EC50 [1]: ≤ 5 µM | EC50 [2]: ≤ 5 µM | EC50 [3]: ≤ 5 µM

Cn1ccc(-c2cn(CCCN)c3ccc(CN4CCN(Cc5ccccc5Cl)CC4)cc23)n1 [C189; HCl]
EC50 [1]: ≤ 5 µM | EC50 [2]: 5 to 10 µM | EC50 [3]: 5 to 10 µM

NCCCn1cc(-c2cn[nH]c2)c2cc(CN3CCN(Cc4ccccc4Cl)CC3)ccc21 [C192; HCl]
EC50 [1]: 5 to 10 µM | EC50 [2]: 5 to 10 µM | EC50 [3]: 5 to 10 µM

NCCCn1cc(-c2ccc(OC(F)(F)F)cc2)c2cc(CN3CCN(CCc4ccccc4Cl)CC3)ccc21 [C140; HCl]
EC50 [1]: ≤ 5 µM | EC50 [2]: ≤ 5 µM | EC50 [3]: ≤ 5 µM

NCCCn1cc(-c2ccc(OC(F)(F)F)cc2)c2cc(S(=O)(=O)N3CCN(Cc4ccccc4Cl)CC3)ccc21 [C153; Formic Acid]
EC50 [1]: ≤ 5 µM | EC50 [2]: ≤ 5 µM | EC50 [3]: ≤ 5 µM

NCCCn1cc(-c2ccc(OC(F)(F)F)cc2)c2cc(CN3CCN(Cc4ccn[nH]4)CC3)ccc21 [C187; HCl]
EC50 [1]: ≤ 5 µM | EC50 [2]: ≤ 5 µM | EC50 [3]: ≤ 5 µM

Cc1cccnc1CN1CCN(Cc2ccc3c(c2)c(-c2ccc(OC(F)(F)F)cc2)cn3CCCN)CC1 [C145; HCl]
EC50 [1]: ≤ 5 µM | EC50 [2]: ≤ 5 µM | EC50 [3]: ≤ 5 µM

CNCc1cc(OC(F)(F)F)ccc1-c1cn(CCCN)c2ccc(CN3CCN(Cc4ccccc4Cl)CC3)cc12 [C238; HCl]
EC50 [1]: ≤ 5 µM | EC50 [2]: ≤ 5 µM | EC50 [3]: ≤ 5 µM

FC(F)(F)Oc1ccc(-c2cn(C3CCNC3)c3ccc(CN4CCN(Cc5ccccc5Cl)CC4)cc23)cc1 (stereo not drawn) [C197; HCl]
EC50 [1]: ≤ 5 µM | EC50 [2]: ≤ 5 µM | EC50 [3]: ≤ 5 µM

NC1(C(=O)NCCCn2nc(-c3ccc(OC(F)(F)F)cc3)c3cc(CN4CCN(Cc5ccccc5Cl)CC4)ccc32)CCNCC1 [C201; HCl]
EC50 [1]: ≤ 5 µM | EC50 [2]: ≤ 5 µM | EC50 [3]: ≤ 5 µM

Cc1ncc(CN2CCN(Cc3ccc4c(c3)c(-c3ccc(OC(F)(F)F)cc3)cn4CCCN)CC2)[nH]1 [C195; HCl]
EC50 [1]: 5 to 10 µM | EC50 [2]: 5 to 10 µM | EC50 [3]: 5 to 10 µM

NCCCn1cc(-c2ccc(OC(F)(F)F)cc2)c2cc(CN3CCC(O)CC3)ccc21 [C295; HCl]
EC50 [1]: ≤ 5 µM | EC50 [2]: ≤ 5 µM | EC50 [3]: ≤ 5 µM

COc1ccc(-c2cn(C(C)(C)CCN)c3ccc(CN4CCN(Cc5ccccc5Cl)CC4)cc23)cc1 [C206; HCl]
EC50 [1]: ≤ 5 µM | EC50 [2]: ≤ 5 µM | EC50 [3]: ≤ 5 µM

NCCCn1cc(-c2ccc(OC(F)(F)F)cc2)c2cc(CN3CCC(Nc4ccc(Cl)cc4)CC3)ccc21 [C210; HCl]
EC50 [1]: ≤ 5 µM | EC50 [2]: ≤ 5 µM | EC50 [3]: ≤ 5 µM

CC1(C)CCN(Cc2ccc3c(c2)c(-c2ccc(OC(F)(F)F)cc2CN)cn3CCCN)CC1 [C272; HCl]
EC50 [1]: ≤ 5 µM | EC50 [2]: 5 to 10 µM | EC50 [3]: ≤ 5 µM

Cc1ccc(-c2cn(CCCN)c3ccc(CN4CCN(Cc5ccccc5Cl)CC4)cc23)c(CN)c1 [C223; HCl]
EC50 [1]: ≤ 5 µM | EC50 [2]: ≤ 5 µM | EC50 [3]: ≤ 5 µM

NCCCn1cc(-c2ccc(OC(F)(F)F)cc2)c2cc(CN3CCN(Cc4ncccc4Cl)CC3)ccc21 [C151; HCl]
EC50 [1]: ≤ 5 µM | EC50 [2]: ≤ 5 µM | EC50 [3]: ≤ 5 µM

NCCCn1cc(-c2ccc(OC(F)(F)F)cc2CN)c2cc(S(=O)(=O)N3CCC(Nc4cccc(Cl)c4)CC3)ccc21 [C263; Formic Acid]
EC50 [1]: 5 to 10 µM | EC50 [2]: ≤ 5 µM | EC50 [3]: ≤ 5 µM

NCCCn1cc(-c2ccc(OC(F)(F)F)cc2)c2cc(CN3CCC(Nc4ccccc4Cl)CC3)ccc21 [C213; Formic Acid]
EC50 [1]: ≤ 5 µM | EC50 [2]: ≤ 5 µM | EC50 [3]: ≤ 5 µM

NCCCn1cc(-c2ccc(OC(F)(F)F)cc2)c2cc(CN3CCC(Oc4ccccc4Cl)CC3)ccc21 [C215; HCl]
EC50 [1]: ≤ 5 µM | EC50 [2]: ≤ 5 µM | EC50 [3]: ≤ 5 µM

CC(=O)NCc1cc(OC(F)(F)F)ccc1-c1cn(CCCN)c2ccc(CN3CCN(Cc4ccccc4Cl)CC3)cc12 [C271; HCl]
EC50 [1]: ≤ 5 µM | EC50 [2]: ≤ 5 µM | EC50 [3]: ≤ 5 µM

NCCCn1cc(-c2ccc(OC(F)(F)F)cc2)c2cc(CN3CCC(NCC(F)(F)F)CC3)ccc21 [C233; HCl]
EC50 [1]: 5 to 10 µM | EC50 [2]: 5 to 10 µM | EC50 [3]: ≤ 5 µM

FC(F)(F)Oc1ccc(-c2cn(C3CCNCC3)c3ccc(CN4CCC(Cc5ccccc5Cl)CC4)cc23)cc1 [C225; HCl]
EC50 [1]: ≤ 5 µM | EC50 [2]: ≤ 5 µM | EC50 [3]: ≤ 5 µM

NCc1ccc(Cn2cc(-c3ccc(OC(F)(F)F)cc3)c3cc(CN4CCN(Cc5ccccc5Cl)CC4)ccc32)cn1 [C224; Formic Acid]
EC50 [1]: ≤ 5 µM | EC50 [2]: ≤ 5 µM | EC50 [3]: ≤ 5 µM

NCC(=O)N1CCC(n2cc(-c3ccc(OC(F)(F)F)cc3)c3cc(CN4CCN(Cc5ccccc5Cl)CC4)ccc32)CC1 [C203; HCl]
EC50 [1]: ≤ 5 µM | EC50 [2]: ≤ 5 µM | EC50 [3]: ≤ 5 µM

FC(F)(F)Oc1ccc(-c2cn(CC3CNCCO3)c3ccc(CN4CCN(Cc5ccccc5Cl)CC4)cc23)cc1 (stereo not drawn) [C231; HCl]
EC50 [1]: ≤ 5 µM | EC50 [2]: ≤ 5 µM | EC50 [3]: ≤ 5 µM

NCCCn1nc(-c2ccc(OC(F)(F)F)cc2)c2cc(CN3CCN(Cc4ccccc4Cl)CC3)ccc21 [C178; HCl]
EC50 [1]: ≤ 5 µM | EC50 [2]: ≤ 5 µM | EC50 [3]: ≤ 5 µM
